Test results taken from publication PMC4774911, “Biochemical Screening of Five Protein Kinases from Plasmodium falciparum against 14,000 Cell-Active Compounds” (PLoS ONE, 2016).
“And” between values parts separate entries of the source, which are not always exact repeats. Identical values can stand only once.

Key:
Assay in all cases: biochemical
Set-up in all cases: endogenous in cells; host or cells: K562 cell extract; species or system K562 (extract); replicate k of n = 2 (each experiment ID is one independent experiment; two experiment IDs per compound)
Settings in all cases: read-out: KDapp
[1] = molecular target: CAMK2G (Homo sapiens, UniProt Q13555)
CAMK2G, sequence (Q13555 whole entry): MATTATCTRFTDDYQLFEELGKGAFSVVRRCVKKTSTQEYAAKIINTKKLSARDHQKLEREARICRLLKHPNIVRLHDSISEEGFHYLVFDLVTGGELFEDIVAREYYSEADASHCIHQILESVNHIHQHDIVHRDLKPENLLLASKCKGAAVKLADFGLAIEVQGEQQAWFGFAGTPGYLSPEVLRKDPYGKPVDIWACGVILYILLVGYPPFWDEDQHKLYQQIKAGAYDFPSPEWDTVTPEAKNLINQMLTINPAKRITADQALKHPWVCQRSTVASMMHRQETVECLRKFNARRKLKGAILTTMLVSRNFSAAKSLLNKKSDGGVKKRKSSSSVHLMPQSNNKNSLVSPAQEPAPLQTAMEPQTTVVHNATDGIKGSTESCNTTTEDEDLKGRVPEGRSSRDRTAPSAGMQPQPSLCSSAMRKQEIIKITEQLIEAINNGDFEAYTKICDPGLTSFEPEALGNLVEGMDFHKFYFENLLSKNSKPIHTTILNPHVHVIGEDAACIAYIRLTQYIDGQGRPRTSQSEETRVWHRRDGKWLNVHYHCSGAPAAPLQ

[2] = molecular target: T1, TTK (Homo sapiens, UniProt P33981)
T1 sequence (P33981 1-857): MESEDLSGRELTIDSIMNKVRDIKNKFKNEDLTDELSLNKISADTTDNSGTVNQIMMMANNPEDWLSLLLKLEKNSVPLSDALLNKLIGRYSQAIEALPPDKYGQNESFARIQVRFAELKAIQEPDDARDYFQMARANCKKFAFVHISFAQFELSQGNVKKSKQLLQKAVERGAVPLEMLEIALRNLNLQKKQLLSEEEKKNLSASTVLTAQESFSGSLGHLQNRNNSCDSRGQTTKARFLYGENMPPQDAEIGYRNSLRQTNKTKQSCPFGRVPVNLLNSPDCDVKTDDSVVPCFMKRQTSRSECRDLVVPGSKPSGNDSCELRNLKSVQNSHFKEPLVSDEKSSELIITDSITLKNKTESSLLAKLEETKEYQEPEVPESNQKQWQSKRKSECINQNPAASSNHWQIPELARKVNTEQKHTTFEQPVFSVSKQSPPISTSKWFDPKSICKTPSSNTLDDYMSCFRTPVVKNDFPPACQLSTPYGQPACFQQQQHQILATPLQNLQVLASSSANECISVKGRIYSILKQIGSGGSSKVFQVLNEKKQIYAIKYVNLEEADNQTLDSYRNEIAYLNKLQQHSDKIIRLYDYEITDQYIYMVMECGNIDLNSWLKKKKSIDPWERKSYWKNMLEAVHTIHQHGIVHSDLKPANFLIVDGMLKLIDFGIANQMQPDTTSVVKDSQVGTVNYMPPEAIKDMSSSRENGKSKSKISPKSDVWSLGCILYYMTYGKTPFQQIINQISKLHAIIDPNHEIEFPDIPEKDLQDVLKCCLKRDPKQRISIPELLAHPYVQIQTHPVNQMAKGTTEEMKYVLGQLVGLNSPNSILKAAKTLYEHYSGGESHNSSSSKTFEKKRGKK

[3] = molecular target: BMP2K (Homo sapiens, UniProt Q9NSY1)
BMP2K, sequence (Q9NSY1 whole entry): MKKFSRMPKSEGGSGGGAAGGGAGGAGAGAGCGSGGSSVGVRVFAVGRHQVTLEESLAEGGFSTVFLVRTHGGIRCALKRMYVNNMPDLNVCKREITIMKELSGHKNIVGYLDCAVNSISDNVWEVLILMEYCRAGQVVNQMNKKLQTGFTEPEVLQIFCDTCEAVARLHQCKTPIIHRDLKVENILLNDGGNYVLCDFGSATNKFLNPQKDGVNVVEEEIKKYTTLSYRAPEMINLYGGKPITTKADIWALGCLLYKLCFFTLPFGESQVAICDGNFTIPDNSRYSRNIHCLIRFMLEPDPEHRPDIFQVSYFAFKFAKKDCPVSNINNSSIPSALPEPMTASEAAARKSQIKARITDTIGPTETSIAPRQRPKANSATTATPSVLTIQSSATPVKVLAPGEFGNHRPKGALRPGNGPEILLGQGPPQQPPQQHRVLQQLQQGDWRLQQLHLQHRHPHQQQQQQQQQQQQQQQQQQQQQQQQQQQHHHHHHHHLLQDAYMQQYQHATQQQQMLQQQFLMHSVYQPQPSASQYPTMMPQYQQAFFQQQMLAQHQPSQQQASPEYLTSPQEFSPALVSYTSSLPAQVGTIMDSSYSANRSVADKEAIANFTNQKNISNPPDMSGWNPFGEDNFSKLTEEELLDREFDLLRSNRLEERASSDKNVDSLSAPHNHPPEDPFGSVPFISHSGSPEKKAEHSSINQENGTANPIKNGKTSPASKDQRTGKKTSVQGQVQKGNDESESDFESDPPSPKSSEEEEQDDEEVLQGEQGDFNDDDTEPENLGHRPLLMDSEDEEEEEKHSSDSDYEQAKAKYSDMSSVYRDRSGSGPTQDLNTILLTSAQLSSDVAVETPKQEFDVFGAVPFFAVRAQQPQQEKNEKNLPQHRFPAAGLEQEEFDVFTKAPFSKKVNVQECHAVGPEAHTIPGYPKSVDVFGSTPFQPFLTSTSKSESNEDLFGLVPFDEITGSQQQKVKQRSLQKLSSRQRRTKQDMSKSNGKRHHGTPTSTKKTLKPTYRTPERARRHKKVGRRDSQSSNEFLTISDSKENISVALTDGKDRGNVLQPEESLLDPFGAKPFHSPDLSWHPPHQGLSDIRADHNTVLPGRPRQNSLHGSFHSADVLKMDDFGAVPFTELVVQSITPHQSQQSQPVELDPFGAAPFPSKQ

[4] = molecular target: NTRK1 (Homo sapiens, UniProt P04629)
NTRK1, sequence (P04629 whole entry): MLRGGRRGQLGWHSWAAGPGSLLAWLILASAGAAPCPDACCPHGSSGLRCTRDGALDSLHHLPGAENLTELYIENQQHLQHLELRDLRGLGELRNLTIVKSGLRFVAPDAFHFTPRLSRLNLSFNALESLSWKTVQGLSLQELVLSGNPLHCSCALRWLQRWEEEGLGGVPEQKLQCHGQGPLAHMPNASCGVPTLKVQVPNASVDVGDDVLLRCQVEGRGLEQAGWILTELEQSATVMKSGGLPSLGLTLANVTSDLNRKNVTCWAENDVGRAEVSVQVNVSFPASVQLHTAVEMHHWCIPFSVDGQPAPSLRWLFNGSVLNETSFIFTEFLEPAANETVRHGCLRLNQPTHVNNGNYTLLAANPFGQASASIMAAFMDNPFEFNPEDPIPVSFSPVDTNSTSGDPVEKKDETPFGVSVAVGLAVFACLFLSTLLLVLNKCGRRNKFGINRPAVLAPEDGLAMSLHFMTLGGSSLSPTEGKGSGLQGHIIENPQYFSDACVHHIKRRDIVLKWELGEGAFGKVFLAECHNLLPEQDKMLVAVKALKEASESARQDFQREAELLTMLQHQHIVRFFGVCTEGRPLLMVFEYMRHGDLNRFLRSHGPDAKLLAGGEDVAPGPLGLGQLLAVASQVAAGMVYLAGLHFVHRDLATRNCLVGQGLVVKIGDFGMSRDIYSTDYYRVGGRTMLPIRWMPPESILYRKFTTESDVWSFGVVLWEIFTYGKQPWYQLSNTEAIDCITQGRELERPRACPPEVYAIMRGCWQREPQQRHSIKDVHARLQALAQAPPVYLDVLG

[5] = molecular target: PRKACA (Homo sapiens, UniProt P17612)
[6] = molecular target: TNK2 (Homo sapiens, UniProt Q07912)
TNK2, sequence (Q07912 whole entry): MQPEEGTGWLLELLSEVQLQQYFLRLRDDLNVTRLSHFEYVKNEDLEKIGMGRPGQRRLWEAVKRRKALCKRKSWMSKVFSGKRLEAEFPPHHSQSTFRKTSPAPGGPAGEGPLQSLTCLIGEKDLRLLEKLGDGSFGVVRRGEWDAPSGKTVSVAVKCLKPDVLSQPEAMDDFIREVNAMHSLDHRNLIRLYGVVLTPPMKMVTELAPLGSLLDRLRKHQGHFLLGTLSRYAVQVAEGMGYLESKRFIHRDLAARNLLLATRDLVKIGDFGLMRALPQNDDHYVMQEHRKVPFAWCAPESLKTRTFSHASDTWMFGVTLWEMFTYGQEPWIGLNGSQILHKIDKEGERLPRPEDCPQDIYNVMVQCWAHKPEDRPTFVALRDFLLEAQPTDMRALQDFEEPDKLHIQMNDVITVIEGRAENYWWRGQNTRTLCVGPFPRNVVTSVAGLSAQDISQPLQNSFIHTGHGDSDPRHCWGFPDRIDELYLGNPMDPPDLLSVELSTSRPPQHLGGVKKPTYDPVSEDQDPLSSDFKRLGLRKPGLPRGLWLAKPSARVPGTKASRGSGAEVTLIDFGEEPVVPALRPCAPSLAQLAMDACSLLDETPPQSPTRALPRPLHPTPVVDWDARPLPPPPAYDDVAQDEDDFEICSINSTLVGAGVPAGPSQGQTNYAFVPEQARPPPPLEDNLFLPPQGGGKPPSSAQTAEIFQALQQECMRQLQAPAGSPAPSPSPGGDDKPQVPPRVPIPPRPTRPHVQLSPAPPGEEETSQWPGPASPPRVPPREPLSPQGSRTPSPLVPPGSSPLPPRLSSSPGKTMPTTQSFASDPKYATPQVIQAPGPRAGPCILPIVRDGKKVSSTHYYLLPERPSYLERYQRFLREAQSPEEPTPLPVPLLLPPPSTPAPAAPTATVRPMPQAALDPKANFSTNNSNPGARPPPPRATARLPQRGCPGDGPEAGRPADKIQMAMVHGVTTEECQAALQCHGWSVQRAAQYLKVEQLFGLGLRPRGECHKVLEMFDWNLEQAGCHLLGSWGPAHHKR

[7] = molecular target: T2, PKMYT1 (Homo sapiens, UniProt Q99640)
T2 sequence (Q99640 1-499): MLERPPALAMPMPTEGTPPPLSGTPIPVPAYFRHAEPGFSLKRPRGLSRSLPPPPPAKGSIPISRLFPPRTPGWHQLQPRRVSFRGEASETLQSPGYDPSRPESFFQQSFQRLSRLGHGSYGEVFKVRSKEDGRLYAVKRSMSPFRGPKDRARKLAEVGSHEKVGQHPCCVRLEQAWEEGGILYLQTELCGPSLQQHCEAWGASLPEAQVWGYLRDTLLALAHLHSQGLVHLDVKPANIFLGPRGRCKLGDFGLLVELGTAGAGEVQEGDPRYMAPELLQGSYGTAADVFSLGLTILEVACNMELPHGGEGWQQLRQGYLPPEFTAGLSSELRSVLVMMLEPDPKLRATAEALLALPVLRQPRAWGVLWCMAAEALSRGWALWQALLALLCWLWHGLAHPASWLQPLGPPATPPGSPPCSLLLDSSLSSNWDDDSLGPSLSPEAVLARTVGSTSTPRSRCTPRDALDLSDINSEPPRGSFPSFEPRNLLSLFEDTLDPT

With CN1CCN(c2ccc(Nc3ncc(C#N)c(Nc4ccccc4C(N)=O)n3)cc2)CC1.Cl [TCMDC-134116] the Kd [1] was 340 nM and 294 nM, the Kd [2] was 439 nM and 357 nM and the Kd [3] was 112 nM and 92.8 nM. The Kd [4] was 1030 nM and 701 nM, the Kd [5] was 1330 nM and the Kd [6] was 73.5 nM. The Kd [7] was 888 nM and 596 nM.
